Test results as given in ChEMBL document CHEMBL3085714 (J Med Chem, 2013).

What was measured:
Homo sapiens [1] = species: Homo sapiens; experiment: Selectivity for p38alpha MAP kinase (unknown origin) over VEGF-R3 (unknown origin)
Homo sapiens [2] = species: Homo sapiens; experiment: Selectivity for p38alpha MAP kinase (unknown origin) over STK25 (unknown origin)
Homo sapiens [3] = species: Homo sapiens; experiment: Selectivity for p38alpha MAP kinase (unknown origin) over STK23 (unknown origin)
Homo sapiens [4] = species: Homo sapiens; experiment: Selectivity for p38alpha MAP kinase (unknown origin) over SRPK1 (unknown origin)
Homo sapiens [5] = species: Homo sapiens; experiment: Selectivity for p38alpha MAP kinase (unknown origin) over SRMS (unknown origin)
Homo sapiens [6] = species: Homo sapiens; experiment: Selectivity for p38alpha MAP kinase (unknown origin) over SNK (unknown origin)
Homo sapiens [7] = species: Homo sapiens; experiment: Selectivity for p38alpha MAP kinase (unknown origin) over SNF1LK2 (unknown origin)
Homo sapiens [8] = species: Homo sapiens; experiment: Selectivity for p38alpha MAP kinase (unknown origin) over CDC42BPB (unknown origin)
Homo sapiens [9] = species: Homo sapiens; experiment: Selectivity for p38alpha MAP kinase (unknown origin) over AXL (unknown origin)
Homo sapiens [10] = species: Homo sapiens; experiment: Selectivity for p38alpha MAP kinase (unknown origin) over Aurora-B (unknown origin)
Homo sapiens [11] = species: Homo sapiens; experiment: Selectivity for p38alpha MAP kinase (unknown origin) over ACK1 (unknown origin)
Homo sapiens [12] = species: Homo sapiens; experiment: Selectivity for p38alpha MAP kinase (unknown origin) over wild-type ABL1 (unknown origin)
Homo sapiens [13] = species: Homo sapiens; experiment: Selectivity for p38alpha MAP kinase (unknown origin) over ABL1 E255K mutant (unknown origin)
Homo sapiens [14] = species: Homo sapiens; experiment: Selectivity for p38alpha MAP kinase (unknown origin) over ROCK2 (unknown origin)
Homo sapiens [15] = species: Homo sapiens; experiment: Selectivity for p38alpha MAP kinase (unknown origin) over RIPK2 (unknown origin)
Homo sapiens [16] = species: Homo sapiens; experiment: Selectivity for p38alpha MAP kinase (unknown origin) over RET V804L mutant (unknown origin)
Homo sapiens [17] = species: Homo sapiens; experiment: Selectivity for p38alpha MAP kinase (unknown origin) over RAF1 Y340D/Y341D double mutant (unknown origin)
Homo sapiens [18] = species: Homo sapiens; experiment: Selectivity for p38alpha MAP kinase (unknown origin) over PYK2 (unknown origin)
Homo sapiens [19] = species: Homo sapiens; experiment: Selectivity for p38alpha MAP kinase (unknown origin) over PKC-zeta (unknown origin)
Homo sapiens [20] = species: Homo sapiens; experiment: Selectivity for p38alpha MAP kinase (unknown origin) over PKC-iota (unknown origin)
Homo sapiens [21] = species: Homo sapiens; experiment: Selectivity for p38alpha MAP kinase (unknown origin) over PKC-beta2 (unknown origin)
Homo sapiens [22] = species: Homo sapiens; experiment: Selectivity for p38alpha MAP kinase (unknown origin) over PKC-beta1 (unknown origin)
Homo sapiens [23] = species: Homo sapiens; experiment: Selectivity for p38alpha MAP kinase (unknown origin) over PIM1 (unknown origin)
Homo sapiens [24] = species: Homo sapiens; experiment: Selectivity for p38alpha MAP kinase (unknown origin) over PDGFR-beta (unknown origin)
Homo sapiens [25] = species: Homo sapiens; experiment: Selectivity for p38alpha MAP kinase (unknown origin) over PDGFR-alpha V561D mutant (unknown origin)
Homo sapiens [26] = species: Homo sapiens; experiment: Selectivity for p38alpha MAP kinase (unknown origin) over PDGFR-alpha D842V mutant (unknown origin)
Homo sapiens [27] = species: Homo sapiens; experiment: Selectivity for p38alpha MAP kinase (unknown origin) over NEK4 (unknown origin)
Homo sapiens [28] = species: Homo sapiens; experiment: Selectivity for p38alpha MAP kinase (unknown origin) over NEK2 (unknown origin)
Homo sapiens [29] = species: Homo sapiens; experiment: Selectivity for p38alpha MAP kinase (unknown origin) over mTOR (unknown origin)
Homo sapiens [30] = species: Homo sapiens; experiment: Selectivity for p38alpha MAP kinase (unknown origin) over MST2 (unknown origin)
[31] = biological target: T1, Mitogen-activated protein kinase 14 (Homo sapiens, UniProt Q16539); experiment: Competitive inhibition of p38alpha MAP kinase (unknown origin) in presence of 300 uM ATP
T1 sequence (Q16539 whole entry): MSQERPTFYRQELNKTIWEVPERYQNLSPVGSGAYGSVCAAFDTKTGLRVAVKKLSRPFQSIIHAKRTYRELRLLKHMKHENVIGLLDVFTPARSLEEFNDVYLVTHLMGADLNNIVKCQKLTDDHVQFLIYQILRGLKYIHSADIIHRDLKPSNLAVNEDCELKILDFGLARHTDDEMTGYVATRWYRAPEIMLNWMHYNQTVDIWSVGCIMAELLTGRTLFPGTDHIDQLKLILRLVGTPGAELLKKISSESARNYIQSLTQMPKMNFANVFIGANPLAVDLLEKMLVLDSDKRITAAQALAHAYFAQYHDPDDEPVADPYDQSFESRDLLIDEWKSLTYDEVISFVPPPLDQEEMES

[32] = biological target: Calcium/calmodulin-dependent protein kinase type II subunit delta (Homo sapiens) (UniProt Q13557); experiment: Inhibition of CAMK2D (unknown origin) at 10 uM
Calcium/calmodulin-dependent protein kinase type II subunit delta (Homo sapiens), sequence (Q13557 whole entry): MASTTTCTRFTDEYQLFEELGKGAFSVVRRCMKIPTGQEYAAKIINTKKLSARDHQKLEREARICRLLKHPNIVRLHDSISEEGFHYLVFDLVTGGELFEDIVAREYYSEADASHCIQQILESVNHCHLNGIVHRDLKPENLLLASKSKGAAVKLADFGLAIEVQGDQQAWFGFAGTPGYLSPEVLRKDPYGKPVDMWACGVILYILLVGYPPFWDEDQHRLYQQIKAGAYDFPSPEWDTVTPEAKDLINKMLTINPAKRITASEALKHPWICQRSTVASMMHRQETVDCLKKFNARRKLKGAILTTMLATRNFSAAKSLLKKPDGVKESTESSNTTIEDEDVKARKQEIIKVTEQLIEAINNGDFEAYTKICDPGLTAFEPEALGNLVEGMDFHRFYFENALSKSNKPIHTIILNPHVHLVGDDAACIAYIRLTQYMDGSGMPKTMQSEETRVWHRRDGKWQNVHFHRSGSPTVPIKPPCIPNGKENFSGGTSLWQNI

[33] = biological target: STE20-like serine/threonine-protein kinase (Homo sapiens) (UniProt Q9H2G2); experiment: Inhibition of SLK (unknown origin) at 10 uM
STE20-like serine/threonine-protein kinase (Homo sapiens), sequence (Q9H2G2 whole entry, looked up): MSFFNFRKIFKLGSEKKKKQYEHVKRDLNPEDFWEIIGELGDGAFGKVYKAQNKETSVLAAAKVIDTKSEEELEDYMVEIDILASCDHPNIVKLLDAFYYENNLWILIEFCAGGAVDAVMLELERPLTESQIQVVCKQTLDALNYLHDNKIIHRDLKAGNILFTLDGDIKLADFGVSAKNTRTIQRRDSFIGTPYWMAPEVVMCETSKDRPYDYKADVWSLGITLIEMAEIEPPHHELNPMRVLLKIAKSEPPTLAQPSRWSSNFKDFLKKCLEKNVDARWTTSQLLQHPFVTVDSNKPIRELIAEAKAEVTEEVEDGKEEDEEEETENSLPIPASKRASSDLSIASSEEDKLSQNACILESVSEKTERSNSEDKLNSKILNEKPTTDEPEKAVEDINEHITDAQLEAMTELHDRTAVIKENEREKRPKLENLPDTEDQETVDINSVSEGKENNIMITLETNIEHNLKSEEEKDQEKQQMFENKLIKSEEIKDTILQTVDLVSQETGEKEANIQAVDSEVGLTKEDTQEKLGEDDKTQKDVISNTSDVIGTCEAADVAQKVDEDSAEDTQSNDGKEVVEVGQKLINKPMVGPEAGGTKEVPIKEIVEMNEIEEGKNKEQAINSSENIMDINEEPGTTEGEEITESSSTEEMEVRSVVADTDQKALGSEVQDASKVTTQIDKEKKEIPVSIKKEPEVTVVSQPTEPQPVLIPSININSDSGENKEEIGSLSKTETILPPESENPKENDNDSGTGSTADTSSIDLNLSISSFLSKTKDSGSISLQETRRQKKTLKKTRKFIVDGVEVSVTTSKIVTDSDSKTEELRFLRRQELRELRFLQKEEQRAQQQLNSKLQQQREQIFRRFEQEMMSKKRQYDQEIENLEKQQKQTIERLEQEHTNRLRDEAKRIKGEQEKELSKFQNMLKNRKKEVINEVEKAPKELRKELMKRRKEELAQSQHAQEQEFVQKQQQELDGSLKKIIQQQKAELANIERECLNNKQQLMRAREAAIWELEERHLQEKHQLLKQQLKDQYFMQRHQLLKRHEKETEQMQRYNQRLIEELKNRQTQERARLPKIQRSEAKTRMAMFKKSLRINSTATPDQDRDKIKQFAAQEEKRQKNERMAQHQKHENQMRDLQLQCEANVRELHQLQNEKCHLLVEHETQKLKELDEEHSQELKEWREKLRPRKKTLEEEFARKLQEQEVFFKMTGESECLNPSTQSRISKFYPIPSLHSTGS

[34] = biological target: T1, Mitogen-activated protein kinase 14; experiment: Competitive inhibition of p38alpha MAP kinase (unknown origin) at 10 uM in presence of 100 uM ATP
Homo sapiens [35] = species: Homo sapiens; experiment: Selectivity for p38alpha MAP kinase (unknown origin) over MET Y1230H mutant (unknown origin)
Homo sapiens [36] = species: Homo sapiens; experiment: Selectivity for p38alpha MAP kinase (unknown origin) over MET Y1230A mutant (unknown origin)
Homo sapiens [37] = species: Homo sapiens; experiment: Selectivity for p38alpha MAP kinase (unknown origin) over MET F1200I mutant (unknown origin)
Homo sapiens [38] = species: Homo sapiens; experiment: Selectivity for p38alpha MAP kinase (unknown origin) over MEK2 (unknown origin)
Homo sapiens [39] = species: Homo sapiens; experiment: Selectivity for p38alpha MAP kinase (unknown origin) over MAP3K7/MAP3K7IP1 (unknown origin)
Homo sapiens [40] = species: Homo sapiens; experiment: Selectivity for p38alpha MAP kinase (unknown origin) over JNK3 (unknown origin)
Homo sapiens [41] = species: Homo sapiens; experiment: Selectivity for p38alpha MAP kinase (unknown origin) over JAK3 (unknown origin)
Homo sapiens [42] = species: Homo sapiens; experiment: Selectivity for p38alpha MAP kinase (unknown origin) over IRAK4 (unknown origin)
Homo sapiens [43] = species: Homo sapiens; experiment: Selectivity for p38alpha MAP kinase (unknown origin) over IRAK1 (unknown origin)
Homo sapiens [44] = species: Homo sapiens; experiment: Selectivity for p38alpha MAP kinase (unknown origin) over INS-R (unknown origin)
Homo sapiens [45] = species: Homo sapiens; experiment: Selectivity for p38alpha MAP kinase (unknown origin) over IKK-alpha (unknown origin)
Homo sapiens [46] = species: Homo sapiens; experiment: Selectivity for p38alpha MAP kinase (unknown origin) over IGF1-R (unknown origin)
Homo sapiens [47] = species: Homo sapiens; experiment: Selectivity for p38alpha MAP kinase (unknown origin) over GRK4 (unknown origin)
Homo sapiens [48] = species: Homo sapiens; experiment: Selectivity for p38alpha MAP kinase (unknown origin) over FLT3 ITD (unknown origin)
Homo sapiens [49] = species: Homo sapiens; experiment: Selectivity for p38alpha MAP kinase (unknown origin) over FLT3 D835Y mutant (unknown origin)
Homo sapiens [50] = species: Homo sapiens; experiment: Selectivity for p38alpha MAP kinase (unknown origin) over FGF-R2 (unknown origin)
Homo sapiens [51] = species: Homo sapiens; experiment: Selectivity for p38alpha MAP kinase (unknown origin) over wild type FGFR1 (unknown origin)
Homo sapiens [52] = species: Homo sapiens; experiment: Selectivity for p38alpha MAP kinase (unknown origin) over FER (unknown origin)
Homo sapiens [53] = species: Homo sapiens; experiment: Selectivity for p38alpha MAP kinase (unknown origin) over EPHB4 (unknown origin)
Homo sapiens [54] = species: Homo sapiens; experiment: Selectivity for p38alpha MAP kinase (unknown origin) over EPHB2 (unknown origin)
Homo sapiens [55] = species: Homo sapiens; experiment: Selectivity for p38alpha MAP kinase (unknown origin) over EPHA3 (unknown origin)
Homo sapiens [56] = species: Homo sapiens; experiment: Selectivity for p38alpha MAP kinase (unknown origin) over EGFR T790M mutant (unknown origin)
Homo sapiens [57] = species: Homo sapiens; experiment: Selectivity for p38alpha MAP kinase (unknown origin) over DYRK1B (unknown origin)
Homo sapiens [58] = species: Homo sapiens; experiment: Selectivity for p38alpha MAP kinase (unknown origin) over DAPK2 (unknown origin)
Homo sapiens [59] = species: Homo sapiens; experiment: Selectivity for p38alpha MAP kinase (unknown origin) over CLK1 (unknown origin)
Homo sapiens [60] = species: Homo sapiens; experiment: Selectivity for p38alpha MAP kinase (unknown origin) over CK1-alpha1 (unknown origin)
Homo sapiens [61] = species: Homo sapiens; experiment: Selectivity for p38alpha MAP kinase (unknown origin) over CHK1 (unknown origin)

## Cc1cc(F)c(NC(=O)c2ccsc2)cc1Nc1ccc2c(c1)OCc1ccc(OC[C@H](O)CO)cc1C2=O
Homo sapiens [1]
  Selectivity ratio: > 1000
Homo sapiens [2]
  Selectivity ratio: > 1000
Homo sapiens [3]
  Selectivity ratio: > 1000
Homo sapiens [4]
  Selectivity ratio: > 1000
Homo sapiens [5]
  Selectivity ratio: > 1000
Homo sapiens [6]
  Selectivity ratio: > 1000
Homo sapiens [7]
  Selectivity ratio: > 1000
Homo sapiens [8]
  Selectivity ratio: > 1000
Homo sapiens [9]
  Selectivity ratio: > 1000
Homo sapiens [10]
  Selectivity ratio: > 1000
Homo sapiens [11]
  Selectivity ratio: > 1000
Homo sapiens [12]
  Selectivity ratio: > 1000
Homo sapiens [13]
  Selectivity ratio: > 1000
Homo sapiens [14]
  Selectivity ratio: > 1000
Homo sapiens [15]
  Selectivity ratio: > 1000
Homo sapiens [16]
  Selectivity ratio: > 1000
Homo sapiens [17]
  Selectivity ratio: > 1000
Homo sapiens [18]
  Selectivity ratio: > 1000
Homo sapiens [19]
  Selectivity ratio: > 1000
Homo sapiens [20]
  Selectivity ratio: > 1000
Homo sapiens [21]
  Selectivity ratio: > 1000
Homo sapiens [22]
  Selectivity ratio: > 1000
Homo sapiens [23]
  Selectivity ratio: > 1000
Homo sapiens [24]
  Selectivity ratio: > 1000
Homo sapiens [25]
  Selectivity ratio: > 1000
Homo sapiens [26]
  Selectivity ratio: > 1000
Homo sapiens [27]
  Selectivity ratio: > 1000
Homo sapiens [28]
  Selectivity ratio: > 1000
Homo sapiens [29]
  Selectivity ratio: > 1000
Homo sapiens [30]
  Selectivity ratio: > 1000
[31]
  IC50: 4 nM
[32]
  inhibition: > 50%
[33]
  inhibition: > 50%
[34]
  inhibition: > 50%
Homo sapiens [35]
  Selectivity ratio: > 1000
Homo sapiens [36]
  Selectivity ratio: > 1000
Homo sapiens [37]
  Selectivity ratio: > 1000
Homo sapiens [38]
  Selectivity ratio: > 1000
Homo sapiens [39]
  Selectivity ratio: > 1000
Homo sapiens [40]
  Selectivity ratio: > 1000
Homo sapiens [41]
  Selectivity ratio: > 1000
Homo sapiens [42]
  Selectivity ratio: > 1000
Homo sapiens [43]
  Selectivity ratio: > 1000
Homo sapiens [44]
  Selectivity ratio: > 1000
Homo sapiens [45]
  Selectivity ratio: > 1000
Homo sapiens [46]
  Selectivity ratio: > 1000
Homo sapiens [47]
  Selectivity ratio: > 1000
Homo sapiens [48]
  Selectivity ratio: > 1000
Homo sapiens [49]
  Selectivity ratio: > 1000
Homo sapiens [50]
  Selectivity ratio: > 1000
Homo sapiens [51]
  Selectivity ratio: > 1000
Homo sapiens [52]
  Selectivity ratio: > 1000
Homo sapiens [53]
  Selectivity ratio: > 1000
Homo sapiens [54]
  Selectivity ratio: > 1000
Homo sapiens [55]
  Selectivity ratio: > 1000
Homo sapiens [56]
  Selectivity ratio: > 1000
Homo sapiens [57]
  Selectivity ratio: > 1000
Homo sapiens [58]
  Selectivity ratio: > 1000
Homo sapiens [59]
  Selectivity ratio: > 1000
Homo sapiens [60]
  Selectivity ratio: > 1000
Homo sapiens [61]
  Selectivity ratio: > 1000
